In US20220315933A1, “SYSTEMS AND METHODS FOR SINGLE-STRAND BREAK SIGNALING AND REPAIR IN A CELL-FREE SYSTEM AND METHODS OF IDENTIFYING MODULATORS OF SINGLE-STRAND BREAK SIGNALING AND REPAIR” (University of North Carolina Charlotte, priority 2017, published 2022):

Columns and labels:
[1] = test system: ATR-Chk1 DDR pathway; experiment: Plasmid-induced Chk1 phosphorylation in NPE (immunoblotting); assay type: biochemical, Xenopus laevis
Description: After 30-min incubation, Chk1 phosphorylation, RPA32 phosphorylation, and Rad17 phosphorylation were examined via immunoblotting analysis as indicated in the image in FIG. 9A. […] Samples were examined via immunoblotting analysis as illustrated in FIG. 9B. For FIG. 9C, CTL or SSB plasmid was added to mock- or Pol alpha-depleted HSS. After 30-min incubation, samples were analyzed via immunoblotting analysis, as illustrated.
(§1) The care and use of Xenopus laevis was approved by the Institutional Animal Care and Use Committee (IACUC) of the University of North Carolina at Charlotte. The preparation of Xenopus LSS, HSS, and NPE were described previously (35,36,39, which are hereby incorporated by reference herein). […] DNA synthesis analysis was performed as previously described (11,35, which are hereby incorporated by reference herein). ImageQuat software was used to quantify the DNA synthesis from HSS/NPE system. […] DNA-bound fractions from the HSS system were isolated after spinning extracts through a sucrose cushion (0.9 M sucrose, 2.5 mM MgCl2, 50 mM KCl, 10 mM HEPES, pH7.7) at 10,000 rpm for 2 minutes at 4° C. with a swinging bucket.

[2] = test system: ATR-Chk1 DDR pathway; experiment: Defined SSB plasmid-induced checkpoint signaling in Xenopus HSS system (immunoblotting); assay type: biochemical, Xenopus laevis; settings: for SSB-induced Chk1 phosphorylation (Chk1 P-S344): HSS with SSB plasmid 75 ng/μL, 30 min incubation, inhibitor added
Description: CTL or SSB plasmid was added to HSS at different concentrations as indicated, and incubated for 30 minutes. Extracts were examined via immunoblotting analysis for Chk1 phosphorylation (i.e., Chk1 P-Ser344) and total Chk1 (FIG. 8A). CTL or SSB plasmid was added to HSS at a final concentration of 75 ng/μL. After different time of incubation at room temperature, the extracts were examined via immunoblotting analysis (FIG. 8B). ATR inhibitor VE-822, ATM inhibitor KU55933, DNA-PK inhibitor NU7441, or recombinant geminin was added to HSS supplemented with CTL or SSB plasmid at a final concentration of […] for 30 minutes. Geminin or roscovitine was added to HSS supplemented with sperm chromatin and hydrogen peroxide. After a 45-min incubation, extracts were examined via immunoblotting analysis as indicated (FIG. 8F). CTL, SSB, or DSB plasmid was added to HSS at different concentrations as indicated. Samples were examined via immunoblotting analysis (FIG. 8G).
CTL or SSB plasmid was added to HSS with the presence or absence of VE-822. After 30-min incubation, Chk1 phosphorylation, RPA32 phosphorylation, and Rad17 phosphorylation were examined via immunoblotting analysis as indicated in the image in FIG. 9A. CTL or SSB plasmid was added to NPE with the presence or absence of VE-822 (ATR inhibitor) or Tautomycin (phosphatase inhibitor). Samples were examined via immunoblotting analysis as illustrated in FIG. 9B. For FIG. 9C, CTL or SSB plasmid was added to mock- or Pol alpha-depleted HSS. After 30-min incubation, samples were analyzed via immunoblotting analysis, as illustrated.
as §1
To determine whether a defined SSB structure triggers a DDR pathway, different concentrations of SSB or CTL plasmid structure were added to HSS, followed by immunoblotting analysis after a 30-minute incubation.

[3] = test system: U2OS cells; experiment: Hydrogen peroxide-induced ATR-Chk1 DDR in human U2OS cells (immunoblotting); assay type: cell-based; settings: asynchronized U2OS cells; VE-822 5 μM 1 hour, then hydrogen peroxide 1.25 mM 4 hours
Description: FIGS. 11A-11B illustrate that hydrogen peroxide induces Chk1 phosphorylation and RPA32 phosphorylation in an ATR-dependent manner in human U2OS cells. FIG. 11A is a digital image of immunoblotting analysis of asynchronized U2OS cells treated with H2O2 and/or VE-822. Cell lysates were analyzed via immunoblotting analysis as indicated. G1 synchronized U2OS cells were treated with H2O2 and/or VE-822. Cell lysates were analyzed via immunoblotting analysis as indicated and illustrated in FIG. 11B.
Human U2OS cells were purchased from the American Type Culture Collection (ATCC) and cultured in Dulbecco's Modified Eagle Medium (DMEM, Life Technologies) supplemented with 10% fetal bovine serum (FBS, Invitrogen), penicillin (100 U/mL) and streptomycin (100 μg/mL, Life Technologies) in incubator at 37° C. and 5% CO2. […] Cells were treated with VE-822 (5 μM) in culture medium for 1 hour followed by hydrogen peroxide treatment (1.25 mM) for 4 hours. Then cells were collected and split for immunoblotting analysis and FACS analysis. For immunoblotting analysis, equal total proteins of cell lysates (10 μg per lane) were loaded and Tubulin was used for loading control. For FACS analysis, cells were further fixed and stained with DAPI followed by cell cycle profiling using FACS machine (BD LSRFortessa) following manufacturer's standard protocol.

[4] = test system: SSB repair; experiment: SSB repair of SSB plasmid in the HSS system (agarose gel); assay type: biochemical, Xenopus laevis; settings: SSB plasmid in HSS with or without VE-822; circular/(circular+nicked)
Description: FIGS. 6A-6D illustrate verification and analysis of the defined DNA structures. FIG. 6A is an image verifying the defined SSB structure on agarose gel (Ethidium bromide staining). CTL plasmid was added to HSS for different time. Then DNA samples were isolated and treated with or without Sbfl, and analyzed on agarose gel (Ethidium bromide staining) as shown in FIG. 6B. For FIG. 6C, the SSB plasmid was added to HSS with or without VE-822 for different time as indicated. SSB repair products were isolated and examined on agarose gel (Ethidium bromide staining). FIG. 6D is a graph quantifying SSB repair capacity (circular/(circular+nicked)×100) with or without VE-822 treatment in the HSS system from FIG. 6C.
Nuclease-free water was added to each reaction of HSS that was incubated with SSB or DSB plasmid to a total of 300 μL. Equal volume of phenol-chloroform was added to the mixture and resuspended up and down 5 times and spin for 5 minutes at 13,000 rpm at room temperature. The top aqueous layer was transferred to a new tube and repeat phenol-chloroform extraction. […] Then the purified DNA repair products were analyzed on agarose gel and stained with ethidium bromide. […]

[5] = test system: ATR-Chk1 DDR pathway; experiment: Hydrogen peroxide-induced Chk1 phosphorylation in HSS supplemented with sperm chromatin (immunoblotting); assay type: biochemical, Xenopus laevis; settings: HSS with sperm chromatin and hydrogen peroxide, 45-min incubation
Description: FIGS. 8A-8G illustrate that the ATR-Chk1 DNA damage response pathway is induced by the defined SSB structure in the HSS system. CTL or SSB plasmid was added to HSS at different concentrations as indicated, and incubated for 30 minutes. Extracts were examined via immunoblotting analysis for Chk1 phosphorylation (i.e., Chk1 P-Ser344) and total Chk1 (FIG. 8A). CTL or SSB plasmid was added to HSS at a final concentration of 75 ng/μL. After different time of incubation at room temperature, the extracts were examined via immunoblotting analysis (FIG. 8B). ATR inhibitor VE-822, ATM inhibitor KU55933, DNA-PK inhibitor NU7441, or recombinant geminin was added to HSS supplemented with CTL or SSB plasmid at a final concentration of […] for 30 minutes. Geminin or roscovitine was added to HSS supplemented with sperm chromatin and hydrogen peroxide. After a 45-min incubation, extracts were examined via immunoblotting analysis as indicated (FIG. 8F). CTL, SSB, or DSB plasmid was added to HSS at different concentrations as indicated. Samples were examined via immunoblotting analysis (FIG. 8G).
The care and use of Xenopus laevis was approved by the Institutional Animal Care and Use Committee (IACUC) of the University of North Carolina at Charlotte. […] ImageQuat software was used to quantify the DNA synthesis from HSS/NPE system. […]

With `CO[C@H]([C@H](O)CC(=O)[C@@H](C)[C@@H](O)CC[C@@H](C)[C@@H]1O[C@]2(CC[C@@H](C)[C@H](CC[C@H](C)C(C)=O)O2)CC[C@@H]1C)[C@H](OC(=O)C[C@@H](O)C1=C(C)C(=O)OC1=O)C(C)C` [tautomycin] as the molecule, how does the “SSB plasmid-triggered Chk1 phosphorylation in NPE” value ([1]; with the presence of tautomycin, no detectable Chk1 phosphorylation without it) read?
Its value is “very robust”.

Which “SSB-induced Chk1 phosphorylation (Chk1 P-S344)” value [2] does the source give for `Nc1ccc2c3c(cccc13)C(=O)NC2=O` [4-Amino-1,8-naphthalimide] here?
The value was “enhanced”.

How did the “hydrogen peroxide-induced Chk1 phosphorylation” value [3] turn out when `CNCc1ccc(-c2cc(-c3nc(-c4ccc(S(=O)(=O)C(C)C)cc4)cnc3N)on2)cc1` [VE-822] was run?
The value was “prevented”.

And the “hydrogen peroxide-induced RPA32 phosphorylation” value [3]?
Its value is “prevented”.

What about the “SSB repair in the HSS system” value [4] of the same molecule?
The value was “compromised”.

What about the “Chk1 phosphorylation events in NPE (SSB plasmid- and CTL plasmid-induced)” value ([1]; NPE with the presence of tautomycin) of the same molecule?
Its value is “inhibited”.

And the “SSB-induced Chk1 phosphorylation (Chk1 P-S344)” value [2]?
The value was “compromised”.

And the “SSB-induced RPA32 phosphorylation” value ([2]; HSS with SSB plasmid, 30 min)?
The value was “sensitive”.

What about the “SSB-induced Rad17 phosphorylation” value ([2]; HSS with SSB plasmid, 30 min) of the same molecule?
Its value is “sensitive”.

`CC[C@H](CO)Nc1nc(NCc2ccccc2)c2ncn(C(C)C)c2n1` [rescovitine] was tested. Which “hydrogen peroxide-induced Chk1 phosphorylation in the HSS” value [5] did it give?
Its value is “had no effect”.

For `C[C@@]1(CO)[C@H](O)CC[C@@]2(C)[C@H]1CC[C@H]1C[C@@H]3C[C@@]12CC[C@]3(O)CO` [aphidicolin], which “SSB-induced Chk1 phosphorylation (Chk1 P-S344)” value [2] is on record?
The value was “not affected”.

With `O=c1cc(-c2cccc3c2Sc2ccccc2S3)oc(N2CCOCC2)c1` [KU55933] as the molecule, how does the “SSB-induced Chk1 phosphorylation (Chk1 P-S344)” value [2] read?
Its value is “almost had no effect”.

How did the “SSB-induced Chk1 phosphorylation (Chk1 P-S344)” value [2] turn out when `O=c1cc(N2CCOCC2)oc2c(-c3cccc4c3sc3ccccc34)cccc12` [NU7441] was run?
The value was “almost had no effect”.

B1: geminin: MCM helicase inhibitor recombinant geminin protein (protein, UniProt O75496 1-209, looked up)
Geminin: MNPSMKQKQEEIKENIKNSSVPRRTLKMIQPSASGSLVGRENELSAGLSKRKHRNDHLTSTTSSPGVIVPESSENKNLGGVTQESFDLMIKENPSSQYWKEVAEKRRKALYEALKENEKLHKEIEQKDNEIARLKKENKELAEVAEHVQYMAELIERLNGEPLDNFESLDNQEFDSEEETVEDSLVEDSEIGTCAEGTVSSSTDAKPCI
For B1, which “hydrogen peroxide-induced Chk1 phosphorylation in the HSS” value [5] is on record?
The value was “had no effect”.

And the “SSB-induced Chk1 phosphorylation (Chk1 P-S344)” value [2]?
Its value is “not impaired”.
